Experimental data published in US8916599B2, “1H-benz imidazole-5-carboxamides as anti-inflammatory agents” (Orexo AB, priority 2008, dated 2014).

Target: T1, recombinant human mPGES-1 (Homo sapiens, UniProt O14684)
T1 construct: made in house; host or cells: Rosetta E. coli (microsomal/membrane fraction)
T1 sequence (O14684 1-152): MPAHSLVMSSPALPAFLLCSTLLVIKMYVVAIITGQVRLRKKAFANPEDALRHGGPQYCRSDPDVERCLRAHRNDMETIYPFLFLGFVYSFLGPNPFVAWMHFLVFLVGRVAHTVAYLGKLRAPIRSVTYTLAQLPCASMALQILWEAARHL
Experiment: mPGES-1 inhibition test (microsomes, PGH2 substrate, HTRF detection of PGE2)
Type: biochemical
Conditions: for inhibition at 10 µM: inhibition of mPGES-1 at 10 μM; for inhibition at 1 µM: inhibition of mPGES-1 at 1 μM (marked in cell)
In short: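 E. coli microsomal enzyme, 0.1 M KPi pH 7.4 + 2.5 mM GSH; cpd (DMSO) 25 min RT; PGH2 1 min; acidic FeCl2 stop. Dilute 750-fold, HTRF (d2/Eu-cryptate anti-PGE2, overnight 4 °C), 665/620 ratio vs PGE2 standard curve.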

**Q.** For `O=C(Nc1cc(Cl)ccn1)c1ccc2c(c1)nc(Nc1c(Cl)cccc1Cl)n2CC1CNC1` [Example 209, 2-(2,6-Dichloro-phenylamino)-(1-azetidin-3-ylmethyl)-1H-benzimidazole-5-carboxylic acid (4-chloro-pyridin-2-yl)-amide (trifluoroacetate)], which inhibition at 10 µM is on record?
**A.** 100%

**Q.** For `O=C(NCC1CCOCC1)c1ccc2[nH]c(Nc3c(Cl)cccc3Cl)nc2c1` [Example 217, 2-(2,6-Dichloro-phenylamino)-1H-benzimidazole-5-carboxylic acid (tetrahydro-pyran-4-ylmethyl)-amide], which inhibition at 10 µM is on record?
**A.** 54%

**Q.** With `O=C(NCc1cccc(C(F)(F)F)n1)c1ccc2[nH]c(Nc3c(Cl)cccc3Cl)nc2c1` [Example 223, 2-(2,6-Dichloro-phenylamino)-1H-benzimidazole-5-carboxylic acid (6-trifluoromethyl-pyridin-2-ylmethyl)-amide] as the compound, how does the inhibition at 10 µM read?
**A.** 87%

**Q.** For `O=C(Nc1ccc(Br)cc1)c1ccc2[nH]c(Nc3c(Cl)cc(Cl)cc3Cl)nc2c1` [Example 107, 2-(2,4,6-Trichloro-phenylamino)-1H-benzimidazole-5-carboxylic acid (4-bromo-phenyl)-amide], which inhibition at 10 µM is on record?
**A.** 99%

**Q.** For `CC(C)Oc1cc2[nH]c(Nc3c(Cl)ccc(Cl)c3F)nc2cc1C(=O)NC1CCC(C(F)(F)F)CC1` (stereo not drawn) [Example 620, 2-(3,6-Dichloro-2-fluoro-phenylamino)-6-isopropoxy-N-(4-trans-trifluoromethyl-cyclohex-1-yl)-1H-benzimidazole-5-carboxamide], which inhibition at 10 µM is on record?
**A.** 100%

**Q.** How did the inhibition at 10 µM turn out when `COc1ccnc(CNC(=O)c2cc3nc(Nc4c(Cl)cccc4Cl)n(C)c3cc2F)c1` [Example 569, 2-(2,6-Dichlorophenylamino)-6-fluoro-N-((4-methoxypyridin-2-yl)methyl)-1-methyl-1H-benzimidazole-5-carboxamide] was run?
**A.** 81%

**Q.** With `O=C(NC1CCC2(CC1)CC2)c1cc2nc(Nc3c(Cl)ccc(Cl)c3F)[nH]c2cc1F` [Example 608, 2-(3,6-Dichloro-2-fluoro-phenylamino)-N-(spiro[2.5]oct-6-yl)-6-fluoro-1H-benzimidazole-5-carboxamide] as the compound, how does the inhibition at 10 µM read?
**A.** 92%

**Q.** How did the inhibition at 10 µM turn out when `COc1cc2[nH]c(Nc3c(Cl)cccc3Cl)nc2cc1C(=O)NCc1ncccc1C1CC1` [Example 407, N-((3-Cyclopropylpyridin-2-yl)-methyl)-2-(2,6-dichlorophenylamino)-6-methoxy-1H-benzimidazole-5-carboxamide] was run?
**A.** 100%

**Q.** How did the inhibition at 10 µM turn out when `O=C(N[C@H]1CC[C@H](C(F)(F)F)CC1)c1cc2nc(Nc3c(Cl)cc(F)cc3Cl)[nH]c2cc1OCC(F)(F)F` [Example 583, 2-(2,6-Dichloro-4-fluoro-phenylamino)-N-(trans-4-trifluoromethyl-cyclohex-1-yl)-6-(2,2,2-trifluoroethoxy)-1H-benzimidazole-5-carboxamide] was run?
**A.** 95%

**Q.** `O=C(Nc1ccc(Br)c(F)c1)c1cc2nc(Nc3c(Cl)cccc3Cl)[nH]c2cc1Cl` [Example 54, 2-(2,6-Dichloro-phenylamino)-6-chloro-1H-benzimidazol-5-carboxylic acid (4-bromo-3-fluoro-phenyl)-amide] was tested. Which inhibition at 10 µM did it give?
**A.** 96%

**Q.** With `O=C(N[C@H]1CC[C@H](C(F)F)CC1)c1cc2nc(Nc3c(Cl)cccc3Cl)[nH]c2cc1F` [Example 496, 2-(2,6-Dichlorophenylamino)-N-((1r,4r)-4-(difluoromethyl)cyclohexyl)-6-fluoro-1H-benzimidazole-5-carboxamide] as the compound, how does the inhibition at 10 µM read?
**A.** 100%

**Q.** How did the inhibition at 10 µM turn out when `COc1cc2[nH]c(Nc3c(Cl)cccc3Cl)nc2cc1C(=O)NCc1ncccc1C` [Example 577, 2-(2,6-Dichlorophenylamino)-6-methoxy-N-((3-methylpyridin-2-yl)-methyl)-1H-benzimidazole-5-carboxamide] was run?
**A.** 100%

**Q.** With `Cn1c(Nc2c(Cl)cccc2Cl)nc2cc(C(=O)NC3CCC4(CC3)CC4)ccc21` [Example 483, 2-(2,6-Dichlorophenylamino)-1-methyl-N-(spiro[2.5]octan-6-yl)-1H-benzimidazole-5-carboxamide] as the compound, how does the inhibition at 10 µM read?
**A.** 95%

**Q.** `Cn1c(Nc2c(F)cccc2F)nc2cc(C(=O)NC3CCC(C)(C)CC3)ccc21` [Example 172, 2-(2,6-Difluoro-phenylamino)-1-methyl-1H-benzimidazole-5-carboxylic acid (4,4-dimethyl-cyclohexyl)-amide] was tested. Which inhibition at 10 µM did it give?
**A.** 97%

**Q.** How did the inhibition at 10 µM turn out when `CS(=O)(=O)NCCn1c(Nc2c(Cl)cccc2Cl)nc2cc(C(=O)Nc3cc(Cl)ccn3)ccc21` [Example 205, 2-(2,6-Dichloro-phenylamino)-1-(2-methanesulfonylamino-ethyl)-1H-benzimidazole-5-carboxylic acid (4-chloro-pyridin-2-yl)-amide] was run?
**A.** 97%

**Q.** For `CCCC[C@@H](C)NC(=O)c1cc2nc(Nc3c(Cl)cccc3Cl)n(C)c2cc1F` [Example 416, (R)-2-(2,6-Dichlorophenylamino)-6-fluoro-N-(hexan-2-yl)-1-methyl-1H-benzimidazole-5-carboxamide], which inhibition at 10 µM is on record?
**A.** 100%

**Q.** How did the inhibition at 10 µM turn out when `Cn1c(Nc2c(F)cccc2Cl)nc2cc(C(=O)NCCC3CC3)c(F)cc21` [Example 502, 2-(2-Chloro-6-fluorophenylamino)-N-(2-cyclopropylethyl)-6-fluoro-1-methyl-1H-benzimidazole-5-carboxamide] was run?
**A.** 96%

**Q.** Which inhibition at 10 µM does the source give for `Cc1cccnc1NC(=O)c1ccc2c(c1)nc(Nc1c(Cl)cccc1Cl)n2C` [Example 341, 2-(2,6-Dichloro-phenylamino)-1-methyl-1-H-benzimidazole-5-carboxylic acid (3-methyl-pyridin-2-yl)-amide] here?
**A.** 92%

**Q.** With `Cc1ccc(Cl)c(Nc2nc3cc(C(=O)Nc4ccc(Br)cc4)ccc3[nH]2)c1Cl` [Example 322, 2-(2,6-Dichloro-3-methyl-phenylamino)-1H-benzimidazole-5-carboxylic acid (4-bromo-phenyl)-amide] as the compound, how does the inhibition at 10 µM read?
**A.** 100%

**Q.** With `O=C(Nc1ccc(Cl)c(F)c1)c1ccc2[nH]c(Nc3c(Cl)cccc3Cl)nc2c1` [Example 67, 2-(2,6-Dichloro-phenylamino)-1H-benzimidazole-5-carboxylic acid (4-chloro-3-fluoro-phenyl)-amide] as the compound, how does the inhibition at 1 µM read?
**A.** 100%

**Q.** How did the inhibition at 10 µM turn out when `COc1cc2[nH]c(Nc3c(Cl)cccc3Cl)nc2cc1C(=O)NCc1ncccc1OC` [Example 525, 2-(2,6-Dichlorophenylamino)-6-methoxy-N-((3-methoxypyridin-2-yl)methyl)-1H-benzimidazole-5-carboxamide] was run?
**A.** 98%

**Q.** How did the inhibition at 10 µM turn out when `COc1cc2c(cc1C(=O)NC1CCCCC1)nc(Nc1c(Cl)cccc1Cl)n2C` [Example 135, 2-(2,6-Dichloro-phenylamino)-6-methoxy-1-methyl-1H-benzimidazole-5-carboxylic acid cyclohexylamide] was run?
**A.** 100%

**Q.** For `O=C(Nc1ccc(I)cc1)c1ccc2[nH]c(Nc3c(Cl)cccc3Cl)nc2c1` [Example 84, 2-(2,6-Dichloro-phenylamino)-1H-benzimidazole-5-carboxylic acid (4-iodo-phenyl)-amide], which inhibition at 10 µM is on record?
**A.** 100%

**Q.** For `Cc1cc(C)nc(NC(=O)c2ccc3c(c2)nc(Nc2c(Cl)cccc2Cl)n3C)c1` [Example 201, 2-(2,6-Dichloro-phenylamino)-1-methyl-1H-benzimidazole-5-carboxylic acid (4,6-dimethyl-pyridin-2-yl)-amide], which inhibition at 10 µM is on record?
**A.** 100%

**Q.** Which inhibition at 10 µM does the source give for `Cn1c(Nc2c(Cl)cccc2Cl)nc2cc(C(=O)NCc3ncccc3C(F)(F)F)ccc21` [Example 244, 2-(2,6-Dichloro-phenylamino)-1-methyl-1H-benzimidazole-5-carboxylic acid (3-trifluoromethyl-pyridin-2-ylmethyl)-amide] here?
**A.** 96%

**Q.** `COc1cc2c(cc1C(=O)Nc1ccc(Br)cc1)nc(Nc1cc(C)ccc1C(F)(F)F)n2C` [Example 641, 2-(5-Methyl-2-trifluoromethyl-phenylamino)-N-(4-bromphenyl)-6-methoxy-1-methyl-1H-benzimidazol-5-carboxamide] was tested. Which inhibition at 1 µM did it give?
**A.** 97%

**Q.** For `O=C(N[C@H]1CC[C@H](C(F)(F)F)CC1)c1cc2nc(Nc3c(Cl)cc(F)cc3Cl)[nH]c2cc1OCC(F)F` [Example 587, 2-(2,6-Dichloro-4-fluoro-phenylamino)-N-(trans-4-trifluoromethyl-cyclohex-1-yl)-6-(2,2-difluoroethoxy)-1H-benzimidazole-5-carboxamide], which inhibition at 10 µM is on record?
**A.** 97%

**Q.** How did the inhibition at 10 µM turn out when `Cn1c(Nc2c(Cl)cccc2Cl)nc2cc(C(=O)N[C@H]3CC[C@H](C(F)F)CC3)c(F)cc21` [Example 475, 2-(2,6-Dichlorophenylamino)-N-((1r,4r)-4-(difluoromethyl)cyclohexyl)-6-fluoro-1-methyl-1H-benzimidazole-5-carboxamide] was run?
**A.** 100%

**Q.** For `CC(C)[C@H]1CC[C@H](NC(=O)c2cc3nc(Nc4c(F)cccc4Cl)n(C)c3cc2F)CC1` [Example 368], which inhibition at 10 µM is on record?
**A.** 100%

**Q.** `Cn1c(Nc2ccc(F)cc2C(F)(F)F)nc2cc(C(=O)Nc3ccc(Br)cc3)ccc21` [Example 385, N-(4-Bromophenyl)-2-(4-fluoro-2-trifluoromethyl-phenylamino)-1-methyl-1H-benzimidazole-5-carboxamide] was tested. Which inhibition at 10 µM did it give?
**A.** 99%

**Q.** `COc1cc2c(cc1C(=O)Nc1ccc(Br)cc1)nc(Nc1cccc(Cl)c1C(F)(F)F)n2C` [Example 654] was tested. Which inhibition at 1 µM did it give?
**A.** 99%

**Q.** For `CC(C)Oc1cc2c(cc1C(=O)NC1CCC(C(F)(F)F)CC1)nc(Nc1c(Cl)ccc(Cl)c1F)n2C` (stereo not drawn) [Example 644, 2-(3,6-Dichloro-2-fluoro-phenylamino)-6-isopropoxy-N-(4-trans-trifluoromethyl-cyclohex-1-yl)-1-methyl-1H-benzimidazole-5-carboxamide], which inhibition at 1 µM is on record?
**A.** 96%

**Q.** For `O=C(Nc1ccc(Br)cc1)c1cc2nc(Nc3c(Cl)cccc3Cl)[nH]c2cc1OCC(F)(F)F` [Example 590, 2-(2,6-Dichloro-phenylamino)-N-(4-bromo-phenyl)-6-(2,2,2-trifluoroethoxy)-1H-benzimidazole-5-carboxamide], which inhibition at 10 µM is on record?
**A.** 96%
